Measurements taken from the supplement of paper PMC10307832.

Legend:
Test in all cases: relative viability (nuclei count vs DMSO), 5 days (fraction); higher = more cells survive
[1] = compound: C[C@]12O[C@H](C[C@]1(O)CO)n1c3ccccc3c3c4c(c5c6ccccc6n2c5c31)CNC4=O [Lestaurtinib] + CC(=O)Nc1cccc(-n2c(=O)n(C3CC3)c(=O)c3c(Nc4ccc(I)cc4F)n(C)c(=O)c(C)c32)c1 [Trametinib] (partner 0.02 µM)
Procedure, shortened: (§1)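 Dosing by pin tool came one day after lung cancer cell lines were seeded in 1536-well plates, using either one drug or a fixed anchor-drug dose plus five library-drug doses (not always all listed) in √10 steps. After 5 days, nuclei were counted on 4× images. Relative viability is treated-well nuclei count divided by vehicle-well nuclei count, and values are medians of duplicate plates.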

[2] = compound: C1/C(=C\C2=CC=CS2)/C(=O)/C(=C/C3=CC=CS3)/C1 + CCNC(=O)c1noc(-c2cc(C(C)C)c(O)cc2O)c1-c1ccc(CN2CCOCC2)cc1 [Luminespib] (partner 0.01 µM)
Procedure, shortened: as §1

[3] = compound: C1/C(=C\C2=CC=CS2)/C(=O)/C(=C/C3=CC=CS3)/C1 + CC(C)C[C@H](NC(=O)[C@H](Cc1ccccc1)NC(=O)c1cnccn1)B(O)O [Bortezomib] (partner 0.002 µM)
Procedure, shortened: as §1

[4] = compound: C1/C(=C\C2=CC=CS2)/C(=O)/C(=C/C3=CC=CS3)/C1 + CS(=O)(=O)N1CCN(Cc2cc3nc(-c4cccc5[nH]ncc45)nc(N4CCOCC4)c3s2)CC1 [Pictilisib] (partner 1 µM)
Procedure, shortened: as §1

With NCI-H2085 the relative viability ([1]; first compound 0.005 µM) was 0.476, the relative viability ([1]; first compound 0.01581 µM) was 0.514 and the relative viability ([1]; first compound 0.05 µM) was 0.558. It also gave a relative viability ([1]; first compound 0.1581 µM) of 0.652, a relative viability ([1]; first compound 0.5 µM) of 0.46 and a relative viability ([2]; first compound 0.2 µM) of 0.446. It also gave a relative viability ([2]; first compound 0.6325 µM) of 0.433, a relative viability ([2]; first compound 2 µM) of 0.453 and a relative viability ([2]; first compound 6.325 µM) of 0.41. It also gave a relative viability ([2]; first compound 20 µM) of 0.503, a relative viability ([3]; first compound 0.2 µM) of 1.16 and a relative viability ([3]; first compound 0.6325 µM) of 1.08. It also gave a relative viability ([3]; first compound 2 µM) of 1.15, a relative viability ([3]; first compound 6.325 µM) of 1.02 and a relative viability ([3]; first compound 20 µM) of 1.03. It also gave a relative viability ([4]; first compound 0.2 µM) of 0.449, a relative viability ([4]; first compound 0.6325 µM) of 0.487 and a relative viability ([4]; first compound 2 µM) of 0.534. It also gave a relative viability ([4]; first compound 6.325 µM) of 0.405 and a relative viability ([4]; first compound 20 µM) of 0.432.

In the case of NCI-H460, the relative viability ([1]; first compound 0.005 µM) is reported as 0.237, the relative viability ([1]; first compound 0.01581 µM) is reported as 0.201 and the relative viability ([1]; first compound 0.05 µM) is reported as 0.144. It also gave a relative viability ([1]; first compound 0.1581 µM) of 0.142, a relative viability ([1]; first compound 0.5 µM) of 0.0705 and a relative viability ([2]; first compound 0.2 µM) of 0.0304. The relative viability ([2]; first compound 0.6325 µM) was 0.0338, the relative viability ([2]; first compound 2 µM) was 0.0299 and the relative viability ([2]; first compound 6.325 µM) was 0.02. For the same cell line, the relative viability ([2]; first compound 20 µM) was 0.0356, the relative viability ([3]; first compound 0.2 µM) was 1.12 and the relative viability ([3]; first compound 0.6325 µM) was 1.26. For the same cell line, the relative viability ([3]; first compound 2 µM) was 1.17, the relative viability ([3]; first compound 20 µM) was 1.09 and the relative viability ([4]; first compound 0.2 µM) was 0.365. It also gave a relative viability ([4]; first compound 0.6325 µM) of 0.279, a relative viability ([4]; first compound 2 µM) of 0.453 and a relative viability ([4]; first compound 6.325 µM) of 0.303. The relative viability ([4]; first compound 20 µM) was 0.346.

Cell Line Calu-6 has a relative viability ([3]; first compound 0.2 µM) of 1.02, a relative viability ([3]; first compound 0.6325 µM) of 1.02 and a relative viability ([3]; first compound 2 µM) of 1. The relative viability ([3]; first compound 6.325 µM) was 0.837, the relative viability ([3]; first compound 20 µM) was 1.06 and the relative viability ([4]; first compound 0.2 µM) was 1.04. The relative viability ([4]; first compound 0.6325 µM) was 1.05, the relative viability ([4]; first compound 2 µM) was 0.955 and the relative viability ([4]; first compound 6.325 µM) was 0.885. It also gave a relative viability ([4]; first compound 20 µM) of 0.82.

In the case of RERF-LC-KJ, the relative viability ([1]; first compound 0.005 µM) is reported as 0.946, the relative viability ([1]; first compound 0.01581 µM) is reported as 0.879 and the relative viability ([1]; first compound 0.05 µM) is reported as 0.736. It also gave a relative viability ([1]; first compound 0.1581 µM) of 0.701, a relative viability ([1]; first compound 0.5 µM) of 0.478 and a relative viability ([2]; first compound 0.2 µM) of 1.26. For the same cell line, the relative viability ([2]; first compound 0.6325 µM) was 1.36, the relative viability ([2]; first compound 2 µM) was 1.25 and the relative viability ([2]; first compound 6.325 µM) was 1.15. The relative viability ([2]; first compound 20 µM) was 1.14, the relative viability ([3]; first compound 0.2 µM) was 1.07 and the relative viability ([3]; first compound 0.6325 µM) was 1.14. It also gave a relative viability ([3]; first compound 2 µM) of 1.04, a relative viability ([3]; first compound 6.325 µM) of 0.912 and a relative viability ([3]; first compound 20 µM) of 1.13. It also gave a relative viability ([4]; first compound 0.2 µM) of 0.566, a relative viability ([4]; first compound 0.6325 µM) of 0.583 and a relative viability ([4]; first compound 2 µM) of 0.583. The relative viability ([4]; first compound 6.325 µM) was 0.42 and the relative viability ([4]; first compound 20 µM) was 0.494.

LCLC-103H was tested, and the relative viability ([1]; first compound 0.005 µM) was 0.717, the relative viability ([1]; first compound 0.01581 µM) was 0.741 and the relative viability ([1]; first compound 0.05 µM) was 0.609. The relative viability ([1]; first compound 0.1581 µM) was 0.592, the relative viability ([1]; first compound 0.5 µM) was 0.678 and the relative viability ([2]; first compound 0.2 µM) was 1.05. For the same cell line, the relative viability ([2]; first compound 0.6325 µM) was 0.901, the relative viability ([2]; first compound 2 µM) was 1.07 and the relative viability ([2]; first compound 6.325 µM) was 0.936. For the same cell line, the relative viability ([2]; first compound 20 µM) was 0.989, the relative viability ([3]; first compound 0.2 µM) was 1.1 and the relative viability ([3]; first compound 0.6325 µM) was 0.998. For the same cell line, the relative viability ([3]; first compound 2 µM) was 1.08, the relative viability ([3]; first compound 6.325 µM) was 1 and the relative viability ([3]; first compound 20 µM) was 1.07. The relative viability ([4]; first compound 0.2 µM) was 0.573, the relative viability ([4]; first compound 0.6325 µM) was 0.57 and the relative viability ([4]; first compound 2 µM) was 0.757. It also gave a relative viability ([4]; first compound 6.325 µM) of 0.483 and a relative viability ([4]; first compound 20 µM) of 0.551.

With HCC-15 the relative viability ([1]; first compound 0.005 µM) was 0.405, the relative viability ([1]; first compound 0.01581 µM) was 0.409 and the relative viability ([1]; first compound 0.05 µM) was 0.306. It also gave a relative viability ([1]; first compound 0.1581 µM) of 0.364, a relative viability ([1]; first compound 0.5 µM) of 0.189 and a relative viability ([2]; first compound 0.2 µM) of 0.396. The relative viability ([2]; first compound 0.6325 µM) was 0.245, the relative viability ([2]; first compound 2 µM) was 0.234 and the relative viability ([2]; first compound 6.325 µM) was 0.211. It also gave a relative viability ([2]; first compound 20 µM) of 0.219, a relative viability ([3]; first compound 0.2 µM) of 1.06 and a relative viability ([3]; first compound 0.6325 µM) of 1.03. The relative viability ([3]; first compound 2 µM) was 1.03, the relative viability ([3]; first compound 6.325 µM) was 0.884 and the relative viability ([3]; first compound 20 µM) was 1.03. For the same cell line, the relative viability ([4]; first compound 0.2 µM) was 0.776, the relative viability ([4]; first compound 0.6325 µM) was 0.748 and the relative viability ([4]; first compound 2 µM) was 0.843. For the same cell line, the relative viability ([4]; first compound 6.325 µM) was 0.642 and the relative viability ([4]; first compound 20 µM) was 0.758.

H3255 was tested, and the relative viability ([1]; first compound 0.005 µM) was 0.587, the relative viability ([1]; first compound 0.01581 µM) was 0.787 and the relative viability ([1]; first compound 0.05 µM) was 0.496. The relative viability ([1]; first compound 0.1581 µM) was 0.546, the relative viability ([1]; first compound 0.5 µM) was 0.386 and the relative viability ([2]; first compound 0.2 µM) was 1.21. It also gave a relative viability ([2]; first compound 0.6325 µM) of 0.855, a relative viability ([2]; first compound 2 µM) of 0.954 and a relative viability ([2]; first compound 6.325 µM) of 0.871. For the same cell line, the relative viability ([2]; first compound 20 µM) was 0.907, the relative viability ([3]; first compound 0.2 µM) was 0.778 and the relative viability ([3]; first compound 0.6325 µM) was 0.82. It also gave a relative viability ([3]; first compound 2 µM) of 0.71, a relative viability ([3]; first compound 6.325 µM) of 0.84 and a relative viability ([3]; first compound 20 µM) of 0.618. The relative viability ([4]; first compound 0.2 µM) was 0.545, the relative viability ([4]; first compound 0.6325 µM) was 0.452 and the relative viability ([4]; first compound 2 µM) was 0.467. The relative viability ([4]; first compound 6.325 µM) was 0.405 and the relative viability ([4]; first compound 20 µM) was 0.506.

In the case of NCI-H1563, the relative viability ([2]; first compound 0.2 µM) is reported as 0.567, the relative viability ([2]; first compound 0.6325 µM) is reported as 0.511 and the relative viability ([2]; first compound 2 µM) is reported as 0.552. The relative viability ([2]; first compound 6.325 µM) was 0.534, the relative viability ([2]; first compound 20 µM) was 0.492 and the relative viability ([3]; first compound 0.2 µM) was 1.01. For the same cell line, the relative viability ([3]; first compound 0.6325 µM) was 0.912, the relative viability ([3]; first compound 2 µM) was 1.11 and the relative viability ([3]; first compound 6.325 µM) was 0.86. For the same cell line, the relative viability ([3]; first compound 20 µM) was 0.859, the relative viability ([4]; first compound 0.2 µM) was 0.753 and the relative viability ([4]; first compound 0.6325 µM) was 0.678. For the same cell line, the relative viability ([4]; first compound 2 µM) was 0.634, the relative viability ([4]; first compound 6.325 µM) was 0.662 and the relative viability ([4]; first compound 20 µM) was 0.636.

Work on NCI-H522 yielded a relative viability ([1]; first compound 0.005 µM) of 0.786, a relative viability ([1]; first compound 0.01581 µM) of 0.786 and a relative viability ([1]; first compound 0.05 µM) of 0.752. For the same cell line, the relative viability ([1]; first compound 0.1581 µM) was 0.701, the relative viability ([1]; first compound 0.5 µM) was 0.537 and the relative viability ([2]; first compound 0.2 µM) was 1.13. The relative viability ([2]; first compound 0.6325 µM) was 0.991, the relative viability ([2]; first compound 2 µM) was 1.32 and the relative viability ([2]; first compound 6.325 µM) was 1.12. For the same cell line, the relative viability ([2]; first compound 20 µM) was 1.07.
